Where two headings read alike, the source gives them in different places.
How the values were obtained:
Assay in all cases: Kinase selectivity, scanMAX Kinase assay panel (DiscoverX), % control at 1 uM
Format in all cases: binding
[1] = biological target: T1, scanMAX Kinase assay panel (Homo sapiens, UniProt O14730); settings: RIOK3; 1 uM; read-out: Percent Control (%)
T1 construct: purchased DiscoverX
T1 sequence (O14730 1-519): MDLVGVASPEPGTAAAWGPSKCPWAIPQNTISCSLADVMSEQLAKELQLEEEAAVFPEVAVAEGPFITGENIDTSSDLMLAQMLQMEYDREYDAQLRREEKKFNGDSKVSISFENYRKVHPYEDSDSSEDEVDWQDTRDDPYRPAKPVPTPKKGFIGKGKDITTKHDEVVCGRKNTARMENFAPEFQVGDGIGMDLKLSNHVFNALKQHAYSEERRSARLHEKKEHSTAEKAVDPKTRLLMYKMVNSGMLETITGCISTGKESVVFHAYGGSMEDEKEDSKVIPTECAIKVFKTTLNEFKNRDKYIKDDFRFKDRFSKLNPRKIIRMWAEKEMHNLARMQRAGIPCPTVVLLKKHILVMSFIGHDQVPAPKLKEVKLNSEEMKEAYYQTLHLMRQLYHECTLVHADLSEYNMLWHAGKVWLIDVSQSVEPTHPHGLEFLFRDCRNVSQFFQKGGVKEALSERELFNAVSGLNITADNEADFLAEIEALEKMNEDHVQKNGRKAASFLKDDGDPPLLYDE
Outline: (§1)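 Compounds were tested at 1 uM in DMSO against each enzyme in the panel. Percent control was calculated as (compound − positive control)/(negative control − positive control) × 100, and a compound was scored active on a kinase when this value fell below 35.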

[2] = biological target: T2, scanMAX Kinase assay panel (Homo sapiens, UniProt P36888); settings: 1 uM, read-out: Percent Control (%)
T2 construct: purchased DiscoverX
T2 sequence (P36888 27-993): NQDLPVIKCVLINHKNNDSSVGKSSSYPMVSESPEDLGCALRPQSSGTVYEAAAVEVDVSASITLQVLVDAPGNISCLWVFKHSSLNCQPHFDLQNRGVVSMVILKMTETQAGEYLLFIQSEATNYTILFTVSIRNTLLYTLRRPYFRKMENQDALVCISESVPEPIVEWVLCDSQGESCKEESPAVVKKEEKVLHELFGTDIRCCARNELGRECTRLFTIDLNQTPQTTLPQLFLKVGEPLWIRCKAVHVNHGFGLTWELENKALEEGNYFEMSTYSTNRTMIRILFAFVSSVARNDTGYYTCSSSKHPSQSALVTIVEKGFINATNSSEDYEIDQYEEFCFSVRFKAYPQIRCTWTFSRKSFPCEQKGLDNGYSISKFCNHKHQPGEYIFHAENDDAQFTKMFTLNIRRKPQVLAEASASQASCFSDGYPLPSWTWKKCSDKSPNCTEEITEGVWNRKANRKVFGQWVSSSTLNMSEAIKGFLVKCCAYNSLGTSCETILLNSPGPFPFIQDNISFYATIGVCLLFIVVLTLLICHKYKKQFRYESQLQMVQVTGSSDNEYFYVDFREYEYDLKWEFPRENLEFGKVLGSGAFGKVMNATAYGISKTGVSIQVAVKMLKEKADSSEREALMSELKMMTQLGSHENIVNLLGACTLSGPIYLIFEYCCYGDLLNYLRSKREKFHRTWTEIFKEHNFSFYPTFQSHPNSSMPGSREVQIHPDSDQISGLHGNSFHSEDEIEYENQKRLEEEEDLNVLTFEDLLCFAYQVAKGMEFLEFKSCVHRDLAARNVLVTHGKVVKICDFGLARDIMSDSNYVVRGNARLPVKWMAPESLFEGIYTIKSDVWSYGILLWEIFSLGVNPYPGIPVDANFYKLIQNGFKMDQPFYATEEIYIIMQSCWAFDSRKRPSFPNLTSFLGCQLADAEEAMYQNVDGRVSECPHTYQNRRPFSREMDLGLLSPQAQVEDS
Outline: as §1

[3] = biological target: T3, scanMAX Kinase assay panel (Homo sapiens, UniProt Q14680); settings: MELK; 1 uM; read-out: Percent Control (%)
T3 construct: purchased DiscoverX
Outline: as §1

[4] = biological target: T4, scanMAX Kinase assay panel (Homo sapiens, UniProt Q8TD19); settings: NEK9; 1 uM; read-out: Percent Control (%)
T4 construct: purchased DiscoverX
T4 sequence (Q8TD19 1-979): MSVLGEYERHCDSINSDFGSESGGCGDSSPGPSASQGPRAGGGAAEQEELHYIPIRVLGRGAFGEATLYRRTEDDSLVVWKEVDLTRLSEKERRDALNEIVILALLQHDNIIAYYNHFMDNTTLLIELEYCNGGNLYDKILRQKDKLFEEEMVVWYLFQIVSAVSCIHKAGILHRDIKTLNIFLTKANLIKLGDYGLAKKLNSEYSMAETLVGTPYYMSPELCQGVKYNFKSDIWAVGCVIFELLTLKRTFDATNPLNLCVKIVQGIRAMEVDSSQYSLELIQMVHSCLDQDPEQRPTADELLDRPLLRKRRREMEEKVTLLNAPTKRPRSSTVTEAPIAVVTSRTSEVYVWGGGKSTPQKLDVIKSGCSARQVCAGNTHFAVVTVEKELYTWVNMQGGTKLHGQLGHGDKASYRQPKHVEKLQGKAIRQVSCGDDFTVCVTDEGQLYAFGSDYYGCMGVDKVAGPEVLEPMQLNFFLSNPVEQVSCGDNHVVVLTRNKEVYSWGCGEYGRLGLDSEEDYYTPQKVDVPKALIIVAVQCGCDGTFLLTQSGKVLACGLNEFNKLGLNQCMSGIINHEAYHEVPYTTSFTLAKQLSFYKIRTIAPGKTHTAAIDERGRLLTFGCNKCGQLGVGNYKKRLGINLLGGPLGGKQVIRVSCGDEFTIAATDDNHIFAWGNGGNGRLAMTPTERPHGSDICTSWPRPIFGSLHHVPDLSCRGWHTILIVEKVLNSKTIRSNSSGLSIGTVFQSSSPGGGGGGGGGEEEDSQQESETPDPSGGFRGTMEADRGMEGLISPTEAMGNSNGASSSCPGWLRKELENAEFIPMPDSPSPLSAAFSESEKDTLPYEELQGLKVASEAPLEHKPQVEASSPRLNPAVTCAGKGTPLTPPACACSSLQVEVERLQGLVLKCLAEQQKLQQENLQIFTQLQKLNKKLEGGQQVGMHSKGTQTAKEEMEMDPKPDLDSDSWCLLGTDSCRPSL
Outline: as §1

[5] = biological target: T5, scanMAX Kinase assay panel (Homo sapiens, UniProt Q9Y2H1); settings: NDR2; 1 uM; read-out: Percent Control (%)
T5 construct: purchased DiscoverX
Outline: as §1

T3 sequence (Q14680 whole entry): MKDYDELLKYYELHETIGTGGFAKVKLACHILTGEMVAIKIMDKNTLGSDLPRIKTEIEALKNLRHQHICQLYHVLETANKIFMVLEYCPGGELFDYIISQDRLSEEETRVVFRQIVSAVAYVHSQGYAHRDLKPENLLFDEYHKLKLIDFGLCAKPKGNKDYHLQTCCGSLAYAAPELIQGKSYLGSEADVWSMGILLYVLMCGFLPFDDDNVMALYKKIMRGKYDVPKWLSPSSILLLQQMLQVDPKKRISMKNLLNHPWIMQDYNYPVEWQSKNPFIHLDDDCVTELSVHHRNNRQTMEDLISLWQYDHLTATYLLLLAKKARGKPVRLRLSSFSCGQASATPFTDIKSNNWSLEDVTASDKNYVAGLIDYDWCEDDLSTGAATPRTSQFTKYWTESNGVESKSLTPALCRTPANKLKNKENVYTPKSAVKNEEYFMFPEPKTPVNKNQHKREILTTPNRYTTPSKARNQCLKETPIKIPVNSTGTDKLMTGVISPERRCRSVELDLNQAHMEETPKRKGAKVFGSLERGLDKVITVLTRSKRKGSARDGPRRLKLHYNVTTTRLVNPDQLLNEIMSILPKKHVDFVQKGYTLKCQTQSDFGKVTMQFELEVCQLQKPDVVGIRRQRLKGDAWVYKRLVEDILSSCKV
T5 sequence (Q9Y2H1 whole entry): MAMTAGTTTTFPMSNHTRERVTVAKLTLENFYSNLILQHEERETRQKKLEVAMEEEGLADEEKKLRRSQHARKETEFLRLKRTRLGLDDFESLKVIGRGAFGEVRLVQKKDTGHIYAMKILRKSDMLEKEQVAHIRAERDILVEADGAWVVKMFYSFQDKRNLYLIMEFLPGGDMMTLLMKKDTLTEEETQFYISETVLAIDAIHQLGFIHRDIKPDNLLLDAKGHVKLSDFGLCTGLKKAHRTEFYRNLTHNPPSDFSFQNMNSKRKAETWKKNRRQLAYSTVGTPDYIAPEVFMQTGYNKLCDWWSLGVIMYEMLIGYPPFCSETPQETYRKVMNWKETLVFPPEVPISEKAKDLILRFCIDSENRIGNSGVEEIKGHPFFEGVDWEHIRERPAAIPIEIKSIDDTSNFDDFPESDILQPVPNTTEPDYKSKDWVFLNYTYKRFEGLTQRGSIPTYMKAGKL

Cc1ccc(C(=O)Nc2ccc(CN3CCN(C)CC3)c(C(F)(F)F)c2)cc1C#Cc1cnc2c(Nc3cnn(C)c3)cccn12 [Example 1, 4-methyl-3-((8-((1-methyl-1H-pyrazol-4-yl)amino)imidazo[1,2-a]pyridin-3-yl)ethynyl)-N-(4-((4-methylpiperazin-1-yl)methyl)-3-(trifluoromethyl)phenyl)benzamide]
remaining binding at 1 µM [1]: 94%
remaining binding at 1 µM ([2]; FLT3-autoinhibited): 46%
remaining binding at 1 µM ([2]; FLT3): 1%
remaining binding at 1 µM [3]: 9%
remaining binding at 1 µM [4]: 6%
remaining binding at 1 µM [5]: 23%

Cc1cn(-c2cc(NC(=O)c3ccc(C)c(C#Cc4cnc5c(Nc6cnn(C)c6)cccn45)c3)cc(C(F)(F)F)c2)cn1 [Example 12, 4-methyl-N-(3-(4-methyl-1H-imidazol-1-yl)-5-(trifluoromethyl)phenyl)-3-((8-((1-methyl-1H-pyrazol-4-yl)amino)imidazo[1,2-a]pyridin-3-yl)ethynyl)benzamide]
remaining binding at 1 µM [1]: 96%
remaining binding at 1 µM ([2]; FLT3-autoinhibited): 100%
remaining binding at 1 µM ([2]; FLT3): 4%
remaining binding at 1 µM [3]: 98%
remaining binding at 1 µM [4]: 86%
remaining binding at 1 µM [5]: 84%

Cc1ccc(NC(=O)C2(C(=O)Nc3ccc(F)cc3)CC2)cc1C#Cc1cnc2c(Nc3cnn(C(C)C)c3)cccn12 [Example 78]
remaining binding at 1 µM [1]: 95%
remaining binding at 1 µM ([2]; FLT3-autoinhibited): 100%
remaining binding at 1 µM ([2]; FLT3): 42%
remaining binding at 1 µM [3]: 91%
remaining binding at 1 µM [4]: 100%
remaining binding at 1 µM [5]: 98%
